Source: patent publication US20100160369A1, “S1P1 Agonists and Methods of Making And Using” (EXELIXIS, INC., priority 2008, published 2010)
Where a name gives a salt, the structure may show the parent alone.

Each molecule was assayed against T1, S1P1 (Homo sapiens, UniProt P21453) (assay: CNG cAMP Assay (Assay 1)). Conditions: read-out: Assay 1 EC50.
Format: cell-based
Parameters: host or cells: HEK293 cells expressing the CNG channel
How it was run: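 cAMP-gated CNG membrane-potential read-out (350/590 nm, T90/T0 ratio) in S1P1/CNG HEK293 cells after 90 min with compound plus NECA 500 nM, S1P 10 nM (EC95), Ro 20-1724 25 μM. Ten 3-fold points from 10 μM, 1.8% DMSO; percent activity vs NECA-only control gives EC50.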
Target sequence in this assay (P21453 whole entry): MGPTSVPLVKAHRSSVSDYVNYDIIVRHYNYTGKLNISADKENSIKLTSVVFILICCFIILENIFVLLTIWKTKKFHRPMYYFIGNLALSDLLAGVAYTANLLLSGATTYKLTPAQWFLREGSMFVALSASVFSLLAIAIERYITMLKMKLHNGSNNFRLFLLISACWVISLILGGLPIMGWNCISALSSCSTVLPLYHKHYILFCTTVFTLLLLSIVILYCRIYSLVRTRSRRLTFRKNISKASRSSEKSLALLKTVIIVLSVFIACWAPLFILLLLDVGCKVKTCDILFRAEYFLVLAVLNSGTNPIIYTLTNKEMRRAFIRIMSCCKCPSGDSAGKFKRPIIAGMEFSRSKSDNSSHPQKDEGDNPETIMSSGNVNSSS
In the case of `CC(Oc1cc(Cl)c(-c2nnc(-c3cn4cc(C(F)(F)F)cc(Cl)c4n3)s2)cc1F)C(=O)O` (centres unmarked) [Example 250, 2-[(5-chloro-4-{5-[8-chloro-6-(trifluoromethyl)imidazo[1,2-a]pyridin-2-yl]-1,3,4-thiadiazol-2-yl}-2-fluorophenyl)oxy]propanoic acid], the EC50 is reported as ≤ 100 nM. With `CC(CO)Oc1cc(Cl)c(-c2nnc(-c3cn4cc(C(F)(F)F)cc(Cl)c4n3)s2)cc1Cl` (centres unmarked) [Example 251, 2-[(2,5-dichloro-4-{5-[8-chloro-6-(trifluoromethyl)imidazo[1,2-a]pyridin-2-yl]-1,3,4-thiadiazol-2-yl}phenyl)oxy]propan-1-ol] the EC50 was ≤ 100 nM. `OCC(O)COc1ccc(-c2nnc(-c3cn4cc(C(F)(F)F)cc(Cl)c4n3)s2)c(Cl)c1` (centres unmarked) [Example 245, 3-[(3-chloro-4-{5-[8-chloro-6-(trifluoromethyl)imidazo[1,2-a]pyridin-2-yl]-1,3,4-thiadiazol-2-yl}phenyl)oxy]propane-1,2-diol] was tested, and the EC50 was ≤ 100 nM.

These molecules were tested against T1, S1P1 (assay: Tango β-arrestin Recruitment Assay in U2OS cells (Assay 2b)). Conditions: Tango β-arrestin Recruitment Assay, footnote 1: Relative EC50 was measured, read-out: Assay 2b relative EC50.
Format: cell-based
Parameters: linker with TEV protease (N1a) cleavage site (C)
Description: For the Tango™ β-arrestin recruitment assay, the cytoplasmic C-terminus of S1P1 is tethered to the tTA transcriptional activator with a linker that contains a cleavage site for the N1a protease from tobacco etch virus (TEV protease). The C-terminus of the human β-arrestin2 protein is fused to TEV protease. Binding of an agonist recruits the β-arrestin-TEV fusion protein to the receptor resulting in cleavage of the linker and release of tTA to enter the nucleus and subsequently activate a tTA-dependent luciferase reporter gene.
Alternatively, U2OS cells expressing the reporter gene and S1P1 (Invitrogen) were added to the wells of a 384-well white opaque bottom assay plate (PerkinElmer) at […] per well. The cells were serum starved for 48 h in Freestyle medium (Invitrogen). Test compounds were tested at maximum concentrations of 1 μM for the agonist assay. Compounds were diluted in DMSO (10 concentration points, 3-fold each) and added to the assay plate at a 1% final DMSO concentration. The efficacy control was 1 μM S1P (Avanti). For each compound, there were duplicate assay plates and each assay plate had duplicate wells per concentration point. The plate was incubated overnight at 37° C. The GeneBLAzer β-lactamase assay reagent (Invitrogen) was added and the plates were incubated for an additional 2 h at room temperature. Fluorescence was measured using an EnVision plate reader (PerkinElmer, Waltham, Mass.) at an excitation wavelength of 409 nm and emission wavelengths of 460 nm and 530 nm. The emission intensity at each wavelength was background subtracted against wells containing medium only and the F460 nm/F530 nm ratio determined for each concentration of the test compounds. Percent activity was calculated as [(test compound ratio−DMSO ratio)/(positive control ratio−DMSO ratio)*100], where the positive control and DMSO ratios are from cells incubated with the efficacy control 1 μM S1P and 1% DMSO, respectively. The percent activities were plotted against compound concentration to determine EC50 using XLFit (IDBS).
Assay 1 is the CNG cAMP Assay as described in Biological Example 1. Assay 2a and 2b are the Tango™ β-arrestin Recruitment Assay in HEK293 and U2OS cells, respectively, as described in Biological Example 2. Assay 3a is the hS1P1R GTPγS Binding Assay as described in Biological Example 3. Assay 3b is the GTP-Eu Binding Assay as described in Biological Example 3. EC50's were measured unless otherwise noted. […] In the table, “nt” means the Compound was not tested and “no” means the compound was tested but had no measurable activity under the assay conditions employed.
Target sequence in this assay (P21453 whole entry): as above
Target sequence in this assay (P32121 whole entry partner): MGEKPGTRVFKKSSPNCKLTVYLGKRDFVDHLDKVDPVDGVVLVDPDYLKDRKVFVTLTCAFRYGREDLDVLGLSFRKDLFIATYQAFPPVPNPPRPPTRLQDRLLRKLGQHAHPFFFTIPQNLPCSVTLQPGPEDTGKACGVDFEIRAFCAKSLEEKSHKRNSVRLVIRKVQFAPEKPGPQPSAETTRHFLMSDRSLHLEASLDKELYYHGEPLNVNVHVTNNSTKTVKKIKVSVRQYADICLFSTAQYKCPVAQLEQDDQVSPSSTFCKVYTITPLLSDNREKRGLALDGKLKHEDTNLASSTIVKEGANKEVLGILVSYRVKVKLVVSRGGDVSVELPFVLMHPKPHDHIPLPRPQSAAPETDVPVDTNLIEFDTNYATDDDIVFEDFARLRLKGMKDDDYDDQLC
With `CS(=O)(=O)CCOc1cc(Cl)c(-c2noc(-c3cn4cc(C(F)(F)F)cc(Cl)c4n3)n2)cc1Cl` [Example 333, 8-chloro-2-[3-(2,5-dichloro-4-{[2-(methylsulfonyl)ethyl]oxy}phenyl)-1,2,4-oxadiazol-5-yl]-6-(trifluoromethyl)imidazo[1,2-a]pyridine] the EC50 was 100 to 500 nM. In the case of `COC(=O)C(C)(O)COc1cc(Cl)c(-c2noc(-c3cn4cc(C(F)(F)F)cc(Cl)c4n3)n2)cc1Cl` (centres unmarked) [Example 319, methyl 3-[(2,5-dichloro-4-{5-[8-chloro-6-(trifluoromethyl)imidazo[1,2-a]pyridin-2-yl]-1,2,4-oxadiazol-3-yl}phenyl)oxy]-2-hydroxy-2-methylpropanoate], the EC50 is reported as 100 to 500 nM.

Same assay, conditions: Tango β-arrestin Recruitment Assay, read-out: Assay 2b EC50
In the case of `CC(Oc1cc(Cl)c(-c2nnc(-c3cn4cc(C(F)(F)F)cc(Cl)c4n3)s2)cc1F)C(=O)O` (centres unmarked) [Example 250, 2-[(5-chloro-4-{5-[8-chloro-6-(trifluoromethyl)imidazo[1,2-a]pyridin-2-yl]-1,3,4-thiadiazol-2-yl}-2-fluorophenyl)oxy]propanoic acid], the EC50 is reported as 100 to 500 nM. With `CC(CO)Oc1cc(Cl)c(-c2nnc(-c3cn4cc(C(F)(F)F)cc(Cl)c4n3)s2)cc1Cl` (centres unmarked) [Example 251, 2-[(2,5-dichloro-4-{5-[8-chloro-6-(trifluoromethyl)imidazo[1,2-a]pyridin-2-yl]-1,3,4-thiadiazol-2-yl}phenyl)oxy]propan-1-ol] the EC50 was ≤ 100 nM. In the case of `OCC(O)COc1ccc(-c2nnc(-c3cn4cc(C(F)(F)F)cc(Cl)c4n3)s2)c(Cl)c1` (centres unmarked) [Example 245, 3-[(3-chloro-4-{5-[8-chloro-6-(trifluoromethyl)imidazo[1,2-a]pyridin-2-yl]-1,3,4-thiadiazol-2-yl}phenyl)oxy]propane-1,2-diol], the EC50 is reported as 100 to 500 nM. For `O=C(O)C1CC1c1cc(Cl)c(-c2noc(-c3cn4cc(C(F)(F)F)cc(Br)c4n3)n2)cc1Cl` (centres unmarked) [Example 306, 2-(4-{5-[8-bromo-6-(trifluoromethyl)imidazo[1,2-a]pyridin-2-yl]-1,2,4-oxadiazol-3-yl}-2,5-dichlorophenyl)cyclopropanecarboxylic acid], the EC50 was ≤ 100 nM. In the case of `OCC(O)CNc1cc(Cl)c(-c2noc(-c3cn4cc(C(F)(F)F)cc(Cl)c4n3)n2)cc1Cl` (centres unmarked) [Entry 29], the EC50 is reported as ≤ 100 nM. For `COc1ccc2nc(-c3nnc(-c4cc(F)c(OC[C@@H](N)CO)cc4Cl)s3)cn2c1` [Example 310, (2S)-2-amino-3-[(5-chloro-2-fluoro-4-{5-[6-(methyloxy)imidazo[1,2-a]pyridin-2-yl]-1,3,4-thiadiazol-2-yl}phenyl)oxy]propan-1-ol], the EC50 was ≤ 100 nM. `NC(CO)COc1cc(Cl)c(-c2nnc(-c3cn4ccc(C(F)(F)F)cc4n3)s2)cc1F` (centres unmarked) [Example 421, 2-amino-3-[(5-chloro-2-fluoro-4-{5-[7-(trifluoromethyl)imidazo[1,2-a]pyridin-2-yl]-1,3,4-thiadiazol-2-yl}phenyl)oxy]propan-1-ol] showed an EC50 of 100 to 500 nM. With `OCCNc1cc(Cl)c(-c2noc(-c3cn4cc(C(F)(F)F)cc(Cl)c4n3)n2)cc1Cl` [Entry 30] the EC50 was ≤ 100 nM. `CC(O)COc1cc(Cl)c(-c2nnc(-c3cn4cc(C(F)(F)F)cc(Cl)c4n3)o2)cc1Cl` (centres unmarked) [Entry 4] was tested, and the EC50 was ≤ 100 nM. With `C[C@@H](CO)Oc1cc(Cl)c(-c2noc(-c3cn4cc(C(F)(F)F)cc(Cl)c4n3)n2)cc1Cl` [Example 156, (2S)-2-[(2,5-dichloro-4-{5-[8-chloro-6-(trifluoromethyl)imidazo[1,2-a]pyridin-2-yl]-1,2,4-oxadiazol-3-yl}phenyl)oxy]propan-1-ol] the EC50 was ≤ 100 nM. In the case of `C[C@@H](COc1cc(Cl)c(-c2noc(-c3cn4cc(C(F)(F)F)cc(Cl)c4n3)n2)cc1Cl)OP(=O)(O)O` [Entry 14], the EC50 is reported as ≤ 100 nM. For `CC(O)CNc1cc(Cl)c(-c2noc(-c3cn4cc(C(F)(F)F)cc(Cl)c4n3)n2)cc1Cl` (centres unmarked) [Example 323, 1-[(2,5-dichloro-4-{5-[8-chloro-6-(trifluoromethyl)imidazo[1,2-a]pyridin-2-yl]-1,2,4-oxadiazol-3-yl}phenyl)amino]propan-2-ol], the EC50 was ≤ 100 nM. `NC(CO)COc1cc(Cl)c(-c2nnc(-c3cn4cc(C(F)(F)F)cc(Cl)c4n3)o2)cc1F` (centres unmarked) [Example 222, 2-amino-3-[(5-chloro-4-{5-[8-chloro-6-(trifluoromethyl)imidazo[1,2-a]pyridin-2-yl]-1,3,4-oxadiazol-2-yl}-2-fluorophenyl)oxy]propan-1-ol] was tested, and the EC50 was ≤ 100 nM. `Oc1cc(Cl)c(-c2nnc(-c3cn4cc(C(F)(F)F)cc(Cl)c4n3)s2)cc1F` [Example 338, 5-chloro-4-{5-[8-chloro-6-(trifluoromethyl)imidazo[1,2-a]pyridin-2-yl]-1,3,4-thiadiazol-2-yl}-2-fluorophenol] showed an EC50 of 100 to 500 nM. In the case of `N[C@@H](CO)COc1cc(Cl)c(-c2nnc(-c3cn4cc(C(F)(F)F)cc(Cl)c4n3)s2)cc1Cl` [Example 201, (2S)-2-amino-3-[(2,5-dichloro-4-{5-[8-chloro-6-(trifluoromethyl)imidazo[1,2-a]pyridin-2-yl]-1,3,4-thiadiazol-2-yl}phenyl)oxy]propan-1-ol], the EC50 is reported as ≤ 100 nM. `O=P(O)(O)COc1cc(Cl)c(-c2noc(-c3cn4cc(C(F)(F)F)cc(Cl)c4n3)n2)cc1Cl` [Entry 52] was tested, and the EC50 was ≤ 100 nM. `CC(O)COc1cc(Cl)c(-c2nnc(-c3cn4cc(C(F)(F)F)cc(Cl)c4n3)s2)cc1Cl` (centres unmarked) [Entry 13] was tested, and the EC50 was ≤ 100 nM. `C[C@H](COc1cc(Cl)c(-c2noc(-c3cn4cc(C(F)(F)F)cc(Cl)c4n3)n2)cc1Cl)OP(=O)(O)O` [Example 328, (1R)-2-[(2,5-dichloro-4-{5-[8-chloro-6-(trifluoromethyl)imidazo[1,2-a]pyridin-2-yl]-1,2,4-oxadiazol-3-yl}phenyl)oxy]-1-methylethyl dihydrogen phosphate] was tested, and the EC50 was ≤ 100 nM. With `OCC(CO)NCCOc1cc(Cl)c(-c2noc(-c3cn4cc(C(F)(F)F)cc(Cl)c4n3)n2)cc1Cl` [Entry 65] the EC50 was ≤ 100 nM. `C[C@H](COc1cc(Cl)c(-c2noc(-c3cn4cc(C(F)(F)F)cc(Cl)c4n3)n2)cc1Cl)OS(=O)(=O)O` [Example 331, (1R)-2-[(2,5-dichloro-4-{5-[8-chloro-6-(trifluoromethyl)imidazo[1,2-a]pyridin-2-yl]-1,2,4-oxadiazol-3-yl}phenyl)oxy]-1-methylethyl hydrogen sulfate] was tested, and the EC50 was ≤ 100 nM. With `COc1ccc2nc(-c3nnc(-c4cc(F)c(OCC(N)CO)cc4Cl)s3)cn2c1` (centres unmarked) [Entry 45] the EC50 was ≤ 100 nM. In the case of `NC(CO)COc1cc(Cl)c(-c2nc(-c3cn4cc(C(F)(F)F)cc(Cl)c4n3)no2)cc1Cl` (centres unmarked) [Example 80, 2-amino-3-[(2,5-dichloro-4-{3-[8-chloro-6-(trifluoromethyl)imidazo[1,2-a]pyridin-2-yl]-1,2,4-oxadiazol-5-yl}phenyl)oxy]propan-1-ol], the EC50 is reported as ≤ 100 nM. For `OC(COc1cc(Cl)c(-c2noc(-c3cn4cc(C(F)(F)F)cc(Br)c4n3)n2)cc1Cl)C(F)(F)F` (centres unmarked) [Example 294, 3-[(4-{5-[8-bromo-6-(trifluoromethyl)imidazo[1,2-a]pyridin-2-yl]-1,2,4-oxadiazol-3-yl}-2,5-dichlorophenyl)oxy]-1,1,1-trifluoropropan-2-ol], the EC50 was ≤ 100 nM.

Same assay, conditions: Tango β-arrestin, footnote 1: Relative EC50 was measured, read-out: Assay 2b Relative EC50
`NC(CO)COc1cc(Cl)c(-c2nnc(-c3cn4cc(C(F)(F)F)cc(Cl)c4n3)o2)cc1Cl` (centres unmarked) [Example 202, 2-amino-3-[(2,5-dichloro-4-{5-[8-chloro-6-(trifluoromethyl)imidazo[1,2-a]pyridin-2-yl]-1,3,4-oxadiazol-2-yl}phenyl)oxy]propan-1-ol] was tested, and the EC50 was 100 to 500 nM.
